From patent US9834542B2, “LXR modulators” (BRISTOL-MYERS SQUIBB COMPANY, priority 2013, dated 2017)

Target: T1, LXRβ (Homo sapiens, UniProt P55055)
T1 construct: Co-transfection expression plasmids, comprising full-length LXRα (pCMX-h LXRα[…] or LXRβ (pCMX-hLXRβ)); expressed in transfected cells; host or cells: CV-1 African Green Monkey Kidney Cells
T1 sequence (P55055 1-460): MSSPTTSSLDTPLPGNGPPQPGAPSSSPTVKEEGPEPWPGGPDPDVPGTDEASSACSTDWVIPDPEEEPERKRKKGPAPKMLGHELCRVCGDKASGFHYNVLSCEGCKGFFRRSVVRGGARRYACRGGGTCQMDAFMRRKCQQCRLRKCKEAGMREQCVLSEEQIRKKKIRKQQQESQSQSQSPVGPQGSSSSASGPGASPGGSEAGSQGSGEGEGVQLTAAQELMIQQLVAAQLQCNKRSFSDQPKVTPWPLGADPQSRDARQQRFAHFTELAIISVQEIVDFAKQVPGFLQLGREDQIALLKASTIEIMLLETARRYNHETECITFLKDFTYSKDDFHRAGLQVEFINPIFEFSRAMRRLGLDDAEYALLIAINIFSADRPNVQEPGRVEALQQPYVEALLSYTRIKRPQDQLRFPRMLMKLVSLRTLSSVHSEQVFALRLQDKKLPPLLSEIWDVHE
T1 sequence (P19793 1-462 partner): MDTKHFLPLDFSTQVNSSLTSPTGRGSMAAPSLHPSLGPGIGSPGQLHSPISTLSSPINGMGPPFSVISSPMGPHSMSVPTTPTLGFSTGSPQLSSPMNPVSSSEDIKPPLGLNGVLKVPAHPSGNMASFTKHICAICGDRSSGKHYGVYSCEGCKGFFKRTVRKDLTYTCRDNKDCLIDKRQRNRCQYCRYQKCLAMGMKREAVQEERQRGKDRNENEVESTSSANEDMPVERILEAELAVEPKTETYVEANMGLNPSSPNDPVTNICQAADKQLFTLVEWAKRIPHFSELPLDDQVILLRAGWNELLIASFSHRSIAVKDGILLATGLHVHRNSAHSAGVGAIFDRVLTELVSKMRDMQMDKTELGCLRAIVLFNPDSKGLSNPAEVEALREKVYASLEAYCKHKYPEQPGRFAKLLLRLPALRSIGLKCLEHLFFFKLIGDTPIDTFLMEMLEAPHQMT
Assay: Co-transfection assay (LXRE luciferase reporter), LXRβ
Type: cell-based
Settings: for EC50: CV-1 cells transfected with pCMX-hLXRβ and LXREx1-Tk-Luciferase, 20 hours incubation; for Emax: LXRβ co-transfection, relative to high control 1-(2,4-difluorobenzyl)-2-oxo-6-(4-phenoxyphenyl)-4-(trifluoromethyl)-1,2-dihydropyridine-3-carbonitrile, read-out: % Efficacy
Method in brief: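 CV-1 cells transiently co-transfected with full-length human LXRβ expression plasmid, LXREx1-Tk-luciferase reporter and β-galactosidase control, then exposed to compound for 20 h at 37 °C. Luciferase luminescence read; EC50 from 11-point, ½-log dose–response fit, efficacy relative to high-control agonist maximum.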

SMILES	EC50 [nM]	Emax [%]
COc1ccc(-c2cnnn2-c2cc(-c3cccc(S(C)(=O)=O)c3)ccc2-n2cc(C(F)(F)F)nc2C)cc1 [Example 26, 5-[4-(methyloxy)phenyl]-1-{3′-(methylsulfonyl)-4-[2-methyl-4-(trifluoromethyl)-1H-imidazol-1-yl]biphenyl-3-yl}-1H-1,2,3-triazole]	541	93
Cc1nc(-c2cc(-c3cccc(S(C)(=O)=O)c3)ccc2-n2cc(C(F)(F)F)nc2C)c(-c2ccc3ccccc3c2)o1 [Example 436, 2-methyl-4-(4-(2-methyl-4-(trifluoromethyl)-1H-imidazol-1-yl)-3′-(methylsulfonyl)biphenyl-3-yl)-5-(naphthalen-2-yl)oxazole]	76	77
Cc1nc(-c2cc(-c3cccc(S(C)(=O)=O)c3)ccc2-n2cc(C(F)(F)F)nc2C)c(-c2cccn(C(C)C)c2=O)o1 [Example 379, 1-isopropyl-3-(2-methyl-4-(4-(2-methyl-4-(trifluoromethyl)-1H-imidazol-1-yl)-3′-(methylsulfonyl)biphenyl-3-yl)oxazol-5-yl)pyridin-2(1H)-one]	825	21
Cc1nc(C(F)(F)F)cn1-c1ccc(-c2cc(F)c(CCO)c(S(C)(=O)=O)c2)cc1-n1nncc1-c1ccc(OC(F)(F)F)cc1 [Example 237, 2-(3-fluoro-4′-(2-methyl-4-(trifluoromethyl)-1H-imidazol-1-yl)-5-(methylsulfonyl)-3′-(5-(4-(trifluoromethoxy)phenyl)-1H-1,2,3-triazol-1-yl)-[1,1′-biphenyl]-4-yl)ethanol]	192	98
Cc1nc(C(F)(F)F)cn1-c1ccc(-c2cccc(S(C)(=O)=O)c2)cc1-c1nc(C(C)CO)oc1-c1ccc(OC(F)(F)F)cc1 (centres unmarked) [Example 565, 2-(4-(4-(2-methyl-4-(trifluoromethyl)-1H-imidazol-1-yl)-3′-(methylsulfonyl)-[1,1′-biphenyl]-3-yl)-5-(4-(trifluoromethoxy)phenyl)oxazol-2-yl)propan-1-ol]	354	30
Cc1nc(C(F)(F)F)cn1-c1ccc(-c2ccc(CO)c(S(C)(=O)=O)c2)cc1-c1oc(CCO)nc1-c1ccc(OC(F)(F)F)cc1 [Example 613, 2-(5-(4′-(hydroxymethyl)-4-(2-methyl-4-(trifluoromethyl)-1H-imidazol-1-yl)-3′-(methylsulfonyl)-[1,1′-biphenyl]-3-yl)-4-(4-(trifluoromethoxy)phenyl)oxazol-2-yl)ethanol]	1160	62
Cc1nc(-c2cc(-c3cccc(S(C)(=O)=O)c3)ccc2-n2cc(C(F)(F)F)nc2C)c(-c2cccnc2OC(F)F)o1 [Example 388, 5-(2-(difluoromethoxy)pyridin-3-yl)-2-methyl-4-(4-(2-methyl-4-(trifluoromethyl)-1H-imidazol-1-yl)-3′-(methylsulfonyl)biphenyl-3-yl)oxazole]	1380	32
COc1ccc(-c2cnnn2-c2cc(-c3cccc(S(C)(=O)=O)c3)ccc2-n2cc(C(F)F)nc2C)cc1 [Example 166, 1-{4-[4-(difluoromethyl)-2-methyl-1H-imidazol-1-yl]-3′-(methylsulfonyl)biphenyl-3-yl}-5-[4-(methyloxy)phenyl]-1H-1,2,3-triazole]	1650	78
Cc1nc(C(=O)C(C)C)cn1-c1ccc(-c2cc(F)c(CO)c(S(C)(=O)=O)c2)cc1-n1nncc1-c1ccc(OC(F)(F)F)cc1 [Example 235, 1-(1-(3′-fluoro-4′-(hydroxymethyl)-5′-(methylsulfonyl)-3-(5-(4-(trifluoromethoxy)phenyl)-1H-1,2,3-triazol-1-yl)-[1,1′-biphenyl]-4-yl)-2-methyl-1H-imidazol-4-yl)-2-methylpropan-1-one]	2270	85
Cc1nc(-c2cc(-c3ccc(CO)c(S(C)(=O)=O)c3)ccc2-n2cc(C(F)(F)F)nc2C)c(-c2ccc(F)c(F)c2)o1 [Example 512, (3′-(5-(3,4-difluorophenyl)-2-methyloxazol-4-yl)-4′-(2-methyl-4-(trifluoromethyl)-1H-imidazol-1-yl)-3-(methylsulfonyl)biphenyl-4-yl)methanol]	136	71
Cc1nc(C(F)(F)F)cn1-c1ccc(-c2cc(F)c(CO)c(S(C)(=O)=O)c2)cc1-n1nncc1-c1ccc(Cl)c(Cl)c1 [Example 81, {3′-[5-(3,4-dichlorophenyl)-1H-1,2,3-triazol-1-yl]-3-fluoro-5-(methylsulfonyl)-4′-[2-methyl-4-(trifluoromethyl)-1H-imidazol-1-yl]biphenyl-4-yl}methanol]	85	99
COCc1ccc(-c2ccc(-n3cc(C(F)(F)F)nc3C)c(-n3nncc3-c3ccc(OC(F)(F)F)cc3)c2)cc1S(C)(=O)=O [Example 89, 1-{4′-[(methyloxy)methyl]-3′-(methylsulfonyl)-4-[2-methyl-4-(trifluoromethyl)-1H-imidazol-1-yl]biphenyl-3-yl}-5-{4-[(trifluoromethyl)oxy]phenyl}-1H-1,2,3-triazole]	316	83
Cc1nc(-c2ccc(Cl)cc2)c(-c2cc(-c3cc(F)c(CO)c(S(C)(=O)=O)c3)ccc2-n2cc(C(F)(F)F)nc2C)o1 [Example 606, (3′-(4-(4-chlorophenyl)-2-methyloxazol-5-yl)-3-fluoro-4′-(2-methyl-4-(trifluoromethyl)-1H-imidazol-1-yl)-5-(methylsulfonyl)-[1,1′-biphenyl]-4-yl)methanol]	52	79
Cc1nc(C(F)(F)F)cn1-c1ccc(-c2cc(F)c(CO)c(S(C)(=O)=O)c2)cc1-c1nc(CCO)oc1-c1ccc(OC(F)(F)F)cc1 [Example 525, 2-(4-(3′-fluoro-4′-(hydroxymethyl)-4-(2-methyl-4-(trifluoromethyl)-1H-imidazol-1-yl)-5′-(methylsulfonyl)-[1,1′-biphenyl]-3-yl)-5-(4-(trifluoromethoxy)phenyl)oxazol-2-yl)ethanol]	650	67
Cc1nc(C(F)(F)F)cn1-c1ccc(-c2cc(F)c(CO)c(S(C)(=O)=O)c2)cc1-c1oc(C(C)C)nc1-c1ccc(OC(F)(F)F)cc1 [Example 601, {3-fluoro-3′-[2-(1-methylethyl)-4-{4-[(trifluoromethyl)oxy]phenyl}-1,3-oxazol-5-yl]-5-(methylsulfonyl)-4′-[2-methyl-4-(trifluoromethyl)-1H-imidazol-1-yl]biphenyl-4-yl}methanol]	30	74
Cc1nc(-c2cc(-c3cccc(S(C)(=O)=O)c3)ccc2-n2cc(C(F)(F)F)nc2C)c(-c2ccc(OCC(F)F)c(F)c2)o1 [Example 425, 5-(4-(2,2-difluoroethoxy)-3-fluorophenyl)-2-methyl-4-(4-(2-methyl-4-(trifluoromethyl)-1H-imidazol-1-yl)-3′-(methylsulfonyl)biphenyl-3-yl)oxazole]	203	71
Cc1nc(-c2cc(-c3cccc(C4(C(N)=O)CC4)c3)ccc2-n2cc(C(F)(F)F)nc2C)c(-c2ccc(OC(F)F)c(F)c2)o1 [Example 438, 1-(3′-(5-(4-(difluoromethoxy)-3-fluorophenyl)-2-methyloxazol-4-yl)-4′-(2-methyl-4-(trifluoromethyl)-1H-imidazol-1-yl)biphenyl-3-yl)cyclopropanecarboxamide]	1380	65
CNS(=O)(=O)c1cccc(-c2ccc(-n3cc(C(C)(F)F)nc3C)c(-n3nncc3-c3ccc(OC(F)(F)F)cc3)c2)c1 [Example 175, 4′-[4-(1,1-difluoroethyl)-2-methyl-1H-imidazol-1-yl]-N-methyl-3′-(5-{4-[(trifluoromethyl)oxy]phenyl}-1H-1,2,3-triazol-1-yl)biphenyl-3-sulfonamide]	315	79
Cc1nc(-c2cc(-c3cccc(S(C)(=O)=O)c3)ccc2-n2cc(C(F)(F)F)nc2C)c(-c2ccc(F)cc2)o1 [Example 505, 5-(4-fluorophenyl)-2-methyl-4-(4-(2-methyl-4-(trifluoromethyl)-1H-imidazol-1-yl)-3′-(methylsulfonyl)biphenyl-3-yl)oxazole]	144	87
